# According to publication PMC3102446, “Different Effects of Mg^2+ and Zn^2+ on the Two Sites for Alkylammonium Compounds in Pseudomonas aeruginosa Phosphorylcholine Phosphatase” (Enzyme Research, 2011):
# Target: T1, Pseudomonas aeruginosa phosphorylcholine phosphatase (PchP) (Pseudomonas aeruginosa, UniProt Q9HTR2)
# T1 construct: His-tag fusion produced in E. coli BL21 CodonPlus; purified with EDTA to remove residual metal
# Assay: biochemical
# Conditions: not given
# Description: inhibition of p-NPP hydrolysis, DYNAFIT global fit on Pseudomonas aeruginosa phosphorylcholine phosphatase (PchP)
# T1 sequence (Q9HTR2 23-349): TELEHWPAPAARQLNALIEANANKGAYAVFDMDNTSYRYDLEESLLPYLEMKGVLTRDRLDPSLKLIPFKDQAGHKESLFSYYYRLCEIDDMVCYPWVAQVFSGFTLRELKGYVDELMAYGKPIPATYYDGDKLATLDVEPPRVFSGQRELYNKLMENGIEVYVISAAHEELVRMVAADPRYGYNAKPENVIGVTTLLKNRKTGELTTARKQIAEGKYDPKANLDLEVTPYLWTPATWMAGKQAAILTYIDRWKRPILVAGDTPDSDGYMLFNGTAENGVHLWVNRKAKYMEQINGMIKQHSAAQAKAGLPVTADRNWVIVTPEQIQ
row,Compound,Ki [µM]
1,C[N+](C)(C)CC(=O)[O-] [Betaine],1440 ± 90
2,C[N+](C)(C)CCO [Choline],100 ± 10
3,C[N+](C)(C)C [Tetramethylammonium],35 ± 8
4,C[N+](C)(C)CCCCCC[N+](C)(C)C [Hexamethonium],80 ± 10
5,CN(C)C(=O)Oc1cccc([N+](C)(C)C)c1 [Neostigmine],570 ± 50
6,C[N+](C)(C)CCCl [Chlorocholine],120 ± 10
7,N[C@H](CO)Cc1c[nH]cn1 [L-histidinol],310 ± 80
8,C[N+](C)(C)CCCCCCCCCC[N+](C)(C)C [Decamethonium],80 ± 10
9,COc1cc2c3cc1Oc1cc(ccc1O)C[C@@H]1c4c(cc(OC)c(O)c4Oc4ccc(cc4)C[C@@H]3N(C)CC2)CC[N+]1(C)C [Tubocurarine],2510 ± 210
10,CC(C)(N)CO [2-amino-2-methyl-1-propanol],210 ± 10
11,CN(C)C [Trimethylamine],60 ± 10

# Tested on: C[N+](C)(C)CCOP(=O)([O-])O
# Assay: purified protein
# Conditions: 0.25-2 mM Mg2+, 100 mM sodium acetate pH 5.0, 37 °C, kcat1 of productive EAS complex
# Description: Pi release assay, DYNAFIT global fit on Pseudomonas aeruginosa phosphorylcholine phosphatase (PchP)
Compound,Km [mM],kcat [s⁻¹]
Pseudomonas aeruginosa phosphorylcholine phosphatase (PchP) (Pseudomonas aeruginosa PAO1),0.021 ± 0.008,121 ± 8
